Measurements published in ChEMBL document CHEMBL4507268 (2021).

What was measured:
Settings in all cases: Compound concentration 1.0 uM
[1] = biological target: T1, Rhodopsin kinase GRK7 (Homo sapiens) (UniProt Q8WTQ7)
T1 sequence (whole entry): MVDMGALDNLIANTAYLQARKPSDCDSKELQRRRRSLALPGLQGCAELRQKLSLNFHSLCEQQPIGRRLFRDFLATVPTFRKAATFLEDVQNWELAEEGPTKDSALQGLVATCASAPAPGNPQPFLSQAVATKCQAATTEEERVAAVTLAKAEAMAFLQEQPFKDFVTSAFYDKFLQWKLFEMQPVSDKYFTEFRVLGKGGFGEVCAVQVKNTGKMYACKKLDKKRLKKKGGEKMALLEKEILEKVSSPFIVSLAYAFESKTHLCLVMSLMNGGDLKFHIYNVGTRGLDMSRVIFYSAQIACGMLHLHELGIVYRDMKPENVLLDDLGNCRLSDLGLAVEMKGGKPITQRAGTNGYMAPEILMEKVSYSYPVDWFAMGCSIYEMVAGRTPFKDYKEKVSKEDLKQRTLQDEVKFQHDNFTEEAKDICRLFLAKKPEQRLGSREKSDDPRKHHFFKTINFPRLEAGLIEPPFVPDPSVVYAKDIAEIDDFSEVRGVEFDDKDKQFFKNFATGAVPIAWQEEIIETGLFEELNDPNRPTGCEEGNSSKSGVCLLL

[2] = biological target: Proto-oncogene tyrosine-protein kinase receptor Ret (Homo sapiens) (UniProt P07949)
[3] = biological target: Death-associated protein kinase 2 (Homo sapiens) (UniProt Q9UIK4)
[4] = biological target: Protein kinase C zeta type (Homo sapiens) (UniProt Q05513)
[5] = biological target: Serine/threonine-protein kinase SIK3 (Homo sapiens) (UniProt Q9Y2K2)
[6] = biological target: Receptor tyrosine-protein kinase erbB-2 (Homo sapiens) (UniProt P04626)
[7] = biological target: Casein kinase II subunit alpha' (Homo sapiens) (UniProt P19784)
[8] = biological target: Calcium/calmodulin-dependent protein kinase kinase 2 (Homo sapiens) (UniProt Q96RR4)
[9] = biological target: STE20-like serine/threonine-protein kinase (Homo sapiens) (UniProt Q9H2G2)
[10] = biological target: Wee1-like protein kinase (Homo sapiens) (UniProt P30291)
[11] = biological target: T2, Activin receptor type-1 (Homo sapiens) (UniProt Q04771)
T2 sequence (whole entry): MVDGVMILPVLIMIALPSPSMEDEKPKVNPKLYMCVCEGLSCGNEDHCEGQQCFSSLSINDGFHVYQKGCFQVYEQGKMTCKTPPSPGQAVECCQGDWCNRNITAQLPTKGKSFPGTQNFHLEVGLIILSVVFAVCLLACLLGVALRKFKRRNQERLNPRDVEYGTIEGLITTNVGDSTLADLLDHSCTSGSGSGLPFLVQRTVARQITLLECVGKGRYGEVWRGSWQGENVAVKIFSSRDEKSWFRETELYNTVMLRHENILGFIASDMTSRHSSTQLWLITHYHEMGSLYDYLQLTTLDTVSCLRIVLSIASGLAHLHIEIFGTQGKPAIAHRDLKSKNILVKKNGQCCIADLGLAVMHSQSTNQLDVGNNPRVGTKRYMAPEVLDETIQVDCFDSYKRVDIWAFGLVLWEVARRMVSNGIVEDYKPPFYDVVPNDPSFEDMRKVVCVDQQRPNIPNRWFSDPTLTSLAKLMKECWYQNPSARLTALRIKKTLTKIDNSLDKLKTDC

[12] = biological target: T3, Serine/threonine-protein kinase ULK3 (Homo sapiens) (UniProt Q6PHR2)
T3 sequence (whole entry): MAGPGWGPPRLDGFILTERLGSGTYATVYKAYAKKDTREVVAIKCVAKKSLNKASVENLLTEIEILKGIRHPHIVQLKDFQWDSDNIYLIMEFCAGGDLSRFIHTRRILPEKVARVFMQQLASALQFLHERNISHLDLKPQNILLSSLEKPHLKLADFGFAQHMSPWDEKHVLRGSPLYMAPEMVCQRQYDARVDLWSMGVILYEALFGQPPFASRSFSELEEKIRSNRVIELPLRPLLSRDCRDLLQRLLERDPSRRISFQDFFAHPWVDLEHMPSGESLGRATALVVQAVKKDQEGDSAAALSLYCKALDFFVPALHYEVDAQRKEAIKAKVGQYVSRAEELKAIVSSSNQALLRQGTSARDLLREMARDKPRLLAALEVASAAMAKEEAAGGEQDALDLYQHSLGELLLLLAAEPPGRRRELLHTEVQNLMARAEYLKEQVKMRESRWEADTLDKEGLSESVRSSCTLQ

[13] = biological target: Homeodomain-interacting protein kinase 2 (Homo sapiens) (UniProt Q9H2X6)
[14] = biological target: Ephrin type-A receptor 7 (Homo sapiens) (UniProt Q15375)
[15] = biological target: T4, Serine/threonine-protein kinase DCLK3 (Homo sapiens) (UniProt Q9C098)
T4 sequence (whole entry): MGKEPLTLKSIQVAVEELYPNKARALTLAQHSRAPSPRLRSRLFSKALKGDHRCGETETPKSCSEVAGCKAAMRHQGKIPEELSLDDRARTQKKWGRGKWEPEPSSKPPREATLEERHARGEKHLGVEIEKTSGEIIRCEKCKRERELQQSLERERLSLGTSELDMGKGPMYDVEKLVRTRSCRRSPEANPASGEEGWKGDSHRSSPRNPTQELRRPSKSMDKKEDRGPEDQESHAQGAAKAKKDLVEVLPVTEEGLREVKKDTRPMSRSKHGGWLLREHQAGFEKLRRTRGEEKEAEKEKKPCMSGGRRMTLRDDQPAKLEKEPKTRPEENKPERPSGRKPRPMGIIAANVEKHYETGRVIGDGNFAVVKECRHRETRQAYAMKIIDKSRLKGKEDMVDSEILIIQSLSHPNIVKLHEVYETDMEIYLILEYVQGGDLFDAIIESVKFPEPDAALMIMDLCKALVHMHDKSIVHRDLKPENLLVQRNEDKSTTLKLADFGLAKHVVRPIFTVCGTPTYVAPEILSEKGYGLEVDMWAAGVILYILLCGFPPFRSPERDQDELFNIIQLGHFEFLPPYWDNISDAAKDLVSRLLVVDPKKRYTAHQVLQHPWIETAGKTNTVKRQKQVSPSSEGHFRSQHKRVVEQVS

[16] = biological target: Serine/threonine-protein kinase 32A (Homo sapiens) (UniProt Q8WU08)

Measured: % residual kinase activity

Chain of Calcium/calmodulin-dependent protein kinase kinase 2 (Homo sapiens) (Q96RR4 2-588 limits assumed): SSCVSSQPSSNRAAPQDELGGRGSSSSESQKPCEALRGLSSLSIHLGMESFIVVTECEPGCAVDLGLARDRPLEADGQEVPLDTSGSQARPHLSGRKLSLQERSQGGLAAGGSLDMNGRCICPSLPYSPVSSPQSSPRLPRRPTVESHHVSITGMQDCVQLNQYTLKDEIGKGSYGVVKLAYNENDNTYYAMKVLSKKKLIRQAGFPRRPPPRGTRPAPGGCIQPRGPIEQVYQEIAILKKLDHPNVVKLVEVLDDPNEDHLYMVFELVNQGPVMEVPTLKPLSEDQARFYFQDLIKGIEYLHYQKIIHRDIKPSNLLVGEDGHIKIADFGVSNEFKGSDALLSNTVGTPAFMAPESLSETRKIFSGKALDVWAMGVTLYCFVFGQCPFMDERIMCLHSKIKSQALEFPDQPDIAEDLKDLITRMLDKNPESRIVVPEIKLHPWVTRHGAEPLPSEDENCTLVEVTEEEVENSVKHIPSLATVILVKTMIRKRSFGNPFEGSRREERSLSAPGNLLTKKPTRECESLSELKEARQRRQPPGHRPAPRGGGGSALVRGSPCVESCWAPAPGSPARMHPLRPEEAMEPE
Chain of Casein kinase II subunit alpha' (Homo sapiens) (P19784 whole entry, looked up): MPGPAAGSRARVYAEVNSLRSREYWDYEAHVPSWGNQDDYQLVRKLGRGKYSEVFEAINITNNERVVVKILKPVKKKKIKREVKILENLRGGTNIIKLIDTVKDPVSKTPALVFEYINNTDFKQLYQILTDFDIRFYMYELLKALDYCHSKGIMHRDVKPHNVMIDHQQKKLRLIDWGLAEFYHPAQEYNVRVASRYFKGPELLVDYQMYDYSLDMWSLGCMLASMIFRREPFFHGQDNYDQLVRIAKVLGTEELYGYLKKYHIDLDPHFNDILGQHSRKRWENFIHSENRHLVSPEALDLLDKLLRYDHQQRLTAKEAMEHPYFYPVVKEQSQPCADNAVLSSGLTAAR
Chain of Homeodomain-interacting protein kinase 2 (Homo sapiens) (Q9H2X6 whole entry, looked up): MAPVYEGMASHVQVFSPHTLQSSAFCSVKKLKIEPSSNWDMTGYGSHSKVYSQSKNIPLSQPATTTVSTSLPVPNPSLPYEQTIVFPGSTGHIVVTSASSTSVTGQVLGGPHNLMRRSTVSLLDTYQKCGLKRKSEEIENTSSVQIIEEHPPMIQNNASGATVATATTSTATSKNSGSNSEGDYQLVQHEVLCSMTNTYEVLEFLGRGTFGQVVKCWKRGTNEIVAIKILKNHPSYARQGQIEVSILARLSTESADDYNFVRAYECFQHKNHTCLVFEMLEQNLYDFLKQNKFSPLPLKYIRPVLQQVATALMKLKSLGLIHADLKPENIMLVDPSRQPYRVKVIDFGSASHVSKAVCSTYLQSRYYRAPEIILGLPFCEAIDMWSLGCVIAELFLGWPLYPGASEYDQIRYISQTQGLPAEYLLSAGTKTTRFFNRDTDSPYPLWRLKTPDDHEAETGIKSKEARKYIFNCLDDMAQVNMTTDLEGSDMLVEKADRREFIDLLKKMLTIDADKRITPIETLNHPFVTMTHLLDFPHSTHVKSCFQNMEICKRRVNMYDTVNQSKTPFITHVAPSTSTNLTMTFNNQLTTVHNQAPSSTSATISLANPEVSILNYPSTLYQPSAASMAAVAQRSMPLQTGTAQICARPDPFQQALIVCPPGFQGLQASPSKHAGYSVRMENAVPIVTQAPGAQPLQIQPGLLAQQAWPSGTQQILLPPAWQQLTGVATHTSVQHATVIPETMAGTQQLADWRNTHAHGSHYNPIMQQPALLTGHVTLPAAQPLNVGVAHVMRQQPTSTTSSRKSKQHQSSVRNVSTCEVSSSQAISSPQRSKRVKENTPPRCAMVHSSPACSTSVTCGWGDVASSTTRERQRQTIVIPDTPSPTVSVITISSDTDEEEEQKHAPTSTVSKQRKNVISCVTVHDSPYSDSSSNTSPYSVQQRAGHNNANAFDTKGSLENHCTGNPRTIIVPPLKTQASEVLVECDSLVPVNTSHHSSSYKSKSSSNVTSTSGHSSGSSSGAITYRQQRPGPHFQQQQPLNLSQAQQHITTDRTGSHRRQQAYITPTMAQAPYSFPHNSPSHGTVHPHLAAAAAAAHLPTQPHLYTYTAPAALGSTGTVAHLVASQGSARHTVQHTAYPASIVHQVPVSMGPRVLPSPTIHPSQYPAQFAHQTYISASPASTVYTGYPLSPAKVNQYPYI
Chain of Wee1-like protein kinase (Homo sapiens) (P30291 whole entry, looked up): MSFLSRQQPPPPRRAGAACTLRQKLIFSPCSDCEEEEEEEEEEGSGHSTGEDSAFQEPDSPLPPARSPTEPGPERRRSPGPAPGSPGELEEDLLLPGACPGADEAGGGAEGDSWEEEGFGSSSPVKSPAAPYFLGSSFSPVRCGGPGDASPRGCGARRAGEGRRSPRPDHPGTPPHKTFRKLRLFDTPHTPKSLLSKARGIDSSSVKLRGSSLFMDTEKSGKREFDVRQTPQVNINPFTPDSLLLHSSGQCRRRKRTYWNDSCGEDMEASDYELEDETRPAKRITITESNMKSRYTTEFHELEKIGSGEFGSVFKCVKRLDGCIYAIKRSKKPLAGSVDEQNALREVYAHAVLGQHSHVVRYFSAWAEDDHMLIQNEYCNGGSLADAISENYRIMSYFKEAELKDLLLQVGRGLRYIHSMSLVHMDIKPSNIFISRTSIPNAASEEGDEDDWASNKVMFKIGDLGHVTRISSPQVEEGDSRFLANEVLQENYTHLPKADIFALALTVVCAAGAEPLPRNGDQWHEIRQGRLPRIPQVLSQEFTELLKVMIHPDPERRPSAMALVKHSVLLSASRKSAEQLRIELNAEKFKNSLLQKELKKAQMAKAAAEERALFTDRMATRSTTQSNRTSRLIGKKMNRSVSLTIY
Chain of Serine/threonine-protein kinase SIK3 (Homo sapiens) (Q9Y2K2 whole entry, looked up): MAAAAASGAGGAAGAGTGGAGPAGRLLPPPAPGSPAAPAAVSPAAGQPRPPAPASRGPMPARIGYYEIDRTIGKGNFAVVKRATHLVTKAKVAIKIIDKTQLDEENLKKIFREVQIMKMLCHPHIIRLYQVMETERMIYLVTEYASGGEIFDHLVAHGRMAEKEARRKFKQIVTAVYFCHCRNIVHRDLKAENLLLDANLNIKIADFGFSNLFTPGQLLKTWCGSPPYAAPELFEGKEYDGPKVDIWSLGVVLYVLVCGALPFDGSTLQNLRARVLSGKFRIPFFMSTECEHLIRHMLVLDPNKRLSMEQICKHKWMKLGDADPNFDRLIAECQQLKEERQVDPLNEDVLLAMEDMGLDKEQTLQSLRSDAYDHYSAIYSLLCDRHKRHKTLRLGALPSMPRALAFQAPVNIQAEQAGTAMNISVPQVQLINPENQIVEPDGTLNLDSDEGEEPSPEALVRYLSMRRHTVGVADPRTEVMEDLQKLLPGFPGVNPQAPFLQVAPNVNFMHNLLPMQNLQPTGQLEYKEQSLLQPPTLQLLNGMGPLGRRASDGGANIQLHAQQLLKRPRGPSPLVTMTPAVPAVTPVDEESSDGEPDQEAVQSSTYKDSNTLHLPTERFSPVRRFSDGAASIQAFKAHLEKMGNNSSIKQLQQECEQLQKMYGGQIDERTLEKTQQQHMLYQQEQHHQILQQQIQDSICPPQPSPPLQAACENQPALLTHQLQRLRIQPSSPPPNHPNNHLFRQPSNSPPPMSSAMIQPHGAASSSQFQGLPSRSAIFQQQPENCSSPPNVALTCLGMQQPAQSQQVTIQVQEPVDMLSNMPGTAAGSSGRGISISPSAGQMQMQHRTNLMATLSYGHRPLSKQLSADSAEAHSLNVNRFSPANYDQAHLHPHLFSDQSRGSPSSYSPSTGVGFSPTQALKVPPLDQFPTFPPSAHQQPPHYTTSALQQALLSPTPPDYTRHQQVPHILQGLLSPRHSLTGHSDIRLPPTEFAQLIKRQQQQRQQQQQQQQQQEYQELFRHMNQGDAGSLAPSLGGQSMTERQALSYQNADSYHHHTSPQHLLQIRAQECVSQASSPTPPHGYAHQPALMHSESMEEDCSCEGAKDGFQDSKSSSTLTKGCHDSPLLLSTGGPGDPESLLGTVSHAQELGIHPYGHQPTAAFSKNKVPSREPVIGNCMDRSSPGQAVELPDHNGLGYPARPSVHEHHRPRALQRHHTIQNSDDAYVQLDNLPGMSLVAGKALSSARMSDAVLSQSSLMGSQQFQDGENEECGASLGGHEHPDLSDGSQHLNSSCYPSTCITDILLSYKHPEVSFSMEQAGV
Chain of Death-associated protein kinase 2 (Homo sapiens) (Q9UIK4 whole entry, looked up): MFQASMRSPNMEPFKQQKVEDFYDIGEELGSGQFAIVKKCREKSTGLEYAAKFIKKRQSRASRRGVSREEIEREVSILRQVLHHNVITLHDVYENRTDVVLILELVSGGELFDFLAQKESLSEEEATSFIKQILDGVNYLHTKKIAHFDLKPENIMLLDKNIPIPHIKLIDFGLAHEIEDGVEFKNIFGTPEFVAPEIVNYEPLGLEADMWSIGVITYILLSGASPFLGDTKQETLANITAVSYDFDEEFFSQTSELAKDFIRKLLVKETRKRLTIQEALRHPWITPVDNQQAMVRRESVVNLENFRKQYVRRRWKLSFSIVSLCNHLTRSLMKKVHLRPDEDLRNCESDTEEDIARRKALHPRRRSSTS
Chain of Serine/threonine-protein kinase 32A (Homo sapiens) (Q8WU08 whole entry): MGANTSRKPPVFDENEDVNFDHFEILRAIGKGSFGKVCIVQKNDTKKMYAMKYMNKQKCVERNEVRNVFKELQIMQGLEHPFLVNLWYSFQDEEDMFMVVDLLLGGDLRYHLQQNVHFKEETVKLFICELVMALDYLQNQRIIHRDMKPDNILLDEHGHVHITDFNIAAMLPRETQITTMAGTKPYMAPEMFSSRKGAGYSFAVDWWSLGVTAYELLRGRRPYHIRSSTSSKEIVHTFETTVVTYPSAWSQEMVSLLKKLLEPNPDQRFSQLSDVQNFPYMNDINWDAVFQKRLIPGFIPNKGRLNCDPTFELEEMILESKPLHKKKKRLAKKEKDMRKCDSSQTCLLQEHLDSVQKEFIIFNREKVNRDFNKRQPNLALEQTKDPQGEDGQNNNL

CN1CCN(c2cnc3c(C4CCN(C(=O)c5ccc(OC(F)(F)F)cc5N)CC4)ncnc3c2)CC1 [BAY-885]
inactive: [1] 101% | [2] 122% | [3] 99% | [4] 114% | [5] 96% | [6] 96% | [7] 94% | [8] 102% | [9] 87% | [10] 108% | [11] 98% | [12] 98% | [13] 107% | [14] 92% | [15] 92% | [16] 100%
